Measured values published in BindingDB's records for doi:10.1016/j.bmc.2017.06.049 (Federal University of Alagoas, 2017).

Assay: Inhibition of Chikungunya virus nsP2 protease infected in African green monkey Vero cells assessed as inhibition of viral-induced cytopathic effect by titration assay

SMILES | EC50 [µM]
CCOc1ccc(/C=N/NC(=O)/C=C/Cc2ccc(C(C)(C)C)cc2)cc1OCC | 3.2
CCOc1ccc(/C=N/NC(=O)C2CC2c2ccc(C(C)(C)C)cc2)cc1OCC (configuration not stated) | 5
